Experimental data: ChEMBL document CHEMBL1201862, “PubChem BioAssay data set” (2004)
Activity calls are given as the source filed them.

Tests used:
[1] = NIH-3T3 fibroblast cytotoxicity, dose response, cytotoxicity control, cell-based, fluorescence, Alamar Blue, secondary assay (AID 2327); assay type: functional;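 further: NIH-3T3 mouse fibroblasts cultured with fluconazole at 8 µg/mL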
[2] = target: T1, Mannose-6-phosphate isomerase (Homo sapiens, UniProt P34949); test: inhibitors of human PMI, primary screen, biochemical, fluorescence intensity, coupled assay (AID 1209)
T1 sequence (P34949 whole entry): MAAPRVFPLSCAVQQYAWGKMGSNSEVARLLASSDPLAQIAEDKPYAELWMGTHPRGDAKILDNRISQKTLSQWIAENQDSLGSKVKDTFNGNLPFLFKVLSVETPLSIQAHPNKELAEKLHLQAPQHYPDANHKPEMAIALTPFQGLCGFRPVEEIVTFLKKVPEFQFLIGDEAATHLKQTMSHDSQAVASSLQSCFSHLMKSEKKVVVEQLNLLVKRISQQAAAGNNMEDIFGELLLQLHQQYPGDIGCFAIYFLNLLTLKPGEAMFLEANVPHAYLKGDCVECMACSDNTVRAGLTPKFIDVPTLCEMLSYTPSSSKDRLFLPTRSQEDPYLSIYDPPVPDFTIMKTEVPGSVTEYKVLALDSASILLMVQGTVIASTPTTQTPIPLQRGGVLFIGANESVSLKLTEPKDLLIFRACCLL

[3] = C. albicans growth with fluconazole, confirmation, fluorescence, retest (AID 2467); assay type: functional, cell-based
Nonstructural protein 1 = Nonstructural protein 1 (Influenza A virus, UniProt Q194T2); assay type: functional, Influenza A virus (A/California/07/2009(H1N1))
Mucolipin-3 = target: T2, Mucolipin-3 (Homo sapiens, UniProt Q8TDD5); test: Dose response cell-based high-throughput screening assay for agonists of the transient receptor potential channel ML3 (TRPML3). [Related pubchem assays: 1526, 1424, 1448 ]; assay type: functional
T2 sequence (Q8TDD5 whole entry): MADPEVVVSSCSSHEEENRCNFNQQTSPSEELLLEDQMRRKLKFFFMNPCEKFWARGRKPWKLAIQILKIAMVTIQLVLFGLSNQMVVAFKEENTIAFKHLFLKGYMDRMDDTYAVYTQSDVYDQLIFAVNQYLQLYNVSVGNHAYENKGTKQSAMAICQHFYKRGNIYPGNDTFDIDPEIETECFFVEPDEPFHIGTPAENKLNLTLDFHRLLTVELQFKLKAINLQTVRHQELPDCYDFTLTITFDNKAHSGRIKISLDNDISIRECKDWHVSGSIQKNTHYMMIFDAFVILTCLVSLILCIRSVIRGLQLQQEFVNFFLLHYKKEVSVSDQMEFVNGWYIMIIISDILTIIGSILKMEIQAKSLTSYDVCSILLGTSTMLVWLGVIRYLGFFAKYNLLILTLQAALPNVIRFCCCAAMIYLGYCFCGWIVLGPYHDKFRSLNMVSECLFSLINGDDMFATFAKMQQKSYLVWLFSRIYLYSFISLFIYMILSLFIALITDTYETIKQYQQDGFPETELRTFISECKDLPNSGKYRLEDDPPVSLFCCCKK

Ion channel NompC = Ion channel NompC (Danio rerio, UniProt Q7T1G6); test: Fluorescence counterscreen assay for TRPML3 agonists: dose response cell-based high-throughput screening assay to identify agonists of the transient receptor potential channel N1 (TRPN1). [Related pubchem assays: 1526, 1424, 1448 ]; assay type: functional
cells [4] = assay type: functional, cell-based
[5] = ADAM10 inhibitors, peptide cleavage, dose response, biochemical, QFRET (AID 743254);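 further: ADAM10 enzyme with the DM2 quenched FRET peptide as substrate; EDANS fluorescence gain as the protease cuts the substrate; inhibitor potency against ADAM10 proteolytic activity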
[6] = target: T3, Disintegrin and metalloproteinase domain-containing protein 17 (Homo sapiens, UniProt P78536); test: ADAM17 protease inhibitors, dose response, counter-screen for ADAM10 exosite inhibitor project, biochemical, quenched FRET substrate (AID 743253)
cells [7] = assay type: functional, cell-based; remark: listed apart in the source
[8] = target: 72 kDa type IV collagenase (Homo sapiens, UniProt P08253); test: Dose Response validation of uHTS RPN11 inhibitor hits using a MMP-2 Fluorescence assay.; assay type: functional
[9] = target: 26S proteasome non-ATPase regulatory subunit 14 (Homo sapiens, UniProt O00487); test: inhibition of proteasome subunit RPN11 – biochemical, fluorescence polarization, uHTS hits, confirmation (AID 602368); assay type: functional
[10] = target: T3, Disintegrin and metalloproteinase domain-containing protein 17; test: exosite inhibitors of ADAM17, dose response, biochemical (AID 743260)
Prothrombin = Prothrombin (Bos taurus, UniProt P00735); test: thrombin inhibition, dose response, biochemical, fluorescence polarization, uHTS hits (AID 602369); assay type: functional
[11] = cytotoxicity toward Colo320 cells – cell-based, CellTiter-Glo luminescence, IC50, dose response (AID 1117334); assay type: functional; details: COLO 320
[12] = RKO cell viability reduction, dose response, CellTiter-Glo luminescence (AID 1117322); assay type: functional
[13] = SNU-C1 cell viability reduction, dose response, CellTiter-Glo luminescence (AID 1117323); assay type: functional, cell-based
[14] = Concentration-dependent survival of SW480 colon cancer line, luminescence detection with CellTiter-Glo, half-maximal inhibitory concentration (AID 1117338); assay type: functional
[15] = cytotoxicity toward HT-29 cells – cell-based, CellTiter-Glo luminescence, IC50, dose response (AID 1117330); assay type: functional
[16] = CellTiter-Glo luminescent dose response of DLD-1 viability loss (AID 1117352); assay type: functional
[17] = HCT116 cell viability decrease, GSK3B pretreatment – CellTiter-Glo, IC50, dose response (AID 1117339); assay type: functional; details: HCT-116
[18] = cytotoxicity toward HCT116 cells – cell-based, CellTiter-Glo luminescence, IC50, dose response (AID 1117332); assay type: functional; details: HCT-116

T3 sequence (P78536 whole entry, the tested form may be a part): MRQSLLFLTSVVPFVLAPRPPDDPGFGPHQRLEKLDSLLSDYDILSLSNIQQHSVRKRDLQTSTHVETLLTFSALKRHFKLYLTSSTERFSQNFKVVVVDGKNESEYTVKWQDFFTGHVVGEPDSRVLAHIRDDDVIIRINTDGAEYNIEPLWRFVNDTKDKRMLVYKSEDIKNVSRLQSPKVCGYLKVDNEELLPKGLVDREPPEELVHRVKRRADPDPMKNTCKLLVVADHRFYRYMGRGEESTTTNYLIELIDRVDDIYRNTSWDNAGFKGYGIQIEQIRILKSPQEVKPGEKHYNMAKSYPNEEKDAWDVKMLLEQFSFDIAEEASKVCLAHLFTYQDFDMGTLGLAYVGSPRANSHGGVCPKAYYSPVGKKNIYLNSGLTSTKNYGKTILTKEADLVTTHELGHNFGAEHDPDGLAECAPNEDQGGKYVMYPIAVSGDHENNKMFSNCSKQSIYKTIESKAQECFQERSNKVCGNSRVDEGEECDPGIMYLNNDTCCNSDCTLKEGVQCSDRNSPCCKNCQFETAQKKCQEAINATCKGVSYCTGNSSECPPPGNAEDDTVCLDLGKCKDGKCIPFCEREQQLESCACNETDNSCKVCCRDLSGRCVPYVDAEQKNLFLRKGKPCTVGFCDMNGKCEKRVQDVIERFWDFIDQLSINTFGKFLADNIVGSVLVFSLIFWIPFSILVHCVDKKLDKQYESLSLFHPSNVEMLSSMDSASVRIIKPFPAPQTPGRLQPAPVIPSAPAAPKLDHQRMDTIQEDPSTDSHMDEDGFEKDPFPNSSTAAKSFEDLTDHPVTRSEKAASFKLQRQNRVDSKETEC
Chain of Ion channel NompC (Q7T1G6 whole entry): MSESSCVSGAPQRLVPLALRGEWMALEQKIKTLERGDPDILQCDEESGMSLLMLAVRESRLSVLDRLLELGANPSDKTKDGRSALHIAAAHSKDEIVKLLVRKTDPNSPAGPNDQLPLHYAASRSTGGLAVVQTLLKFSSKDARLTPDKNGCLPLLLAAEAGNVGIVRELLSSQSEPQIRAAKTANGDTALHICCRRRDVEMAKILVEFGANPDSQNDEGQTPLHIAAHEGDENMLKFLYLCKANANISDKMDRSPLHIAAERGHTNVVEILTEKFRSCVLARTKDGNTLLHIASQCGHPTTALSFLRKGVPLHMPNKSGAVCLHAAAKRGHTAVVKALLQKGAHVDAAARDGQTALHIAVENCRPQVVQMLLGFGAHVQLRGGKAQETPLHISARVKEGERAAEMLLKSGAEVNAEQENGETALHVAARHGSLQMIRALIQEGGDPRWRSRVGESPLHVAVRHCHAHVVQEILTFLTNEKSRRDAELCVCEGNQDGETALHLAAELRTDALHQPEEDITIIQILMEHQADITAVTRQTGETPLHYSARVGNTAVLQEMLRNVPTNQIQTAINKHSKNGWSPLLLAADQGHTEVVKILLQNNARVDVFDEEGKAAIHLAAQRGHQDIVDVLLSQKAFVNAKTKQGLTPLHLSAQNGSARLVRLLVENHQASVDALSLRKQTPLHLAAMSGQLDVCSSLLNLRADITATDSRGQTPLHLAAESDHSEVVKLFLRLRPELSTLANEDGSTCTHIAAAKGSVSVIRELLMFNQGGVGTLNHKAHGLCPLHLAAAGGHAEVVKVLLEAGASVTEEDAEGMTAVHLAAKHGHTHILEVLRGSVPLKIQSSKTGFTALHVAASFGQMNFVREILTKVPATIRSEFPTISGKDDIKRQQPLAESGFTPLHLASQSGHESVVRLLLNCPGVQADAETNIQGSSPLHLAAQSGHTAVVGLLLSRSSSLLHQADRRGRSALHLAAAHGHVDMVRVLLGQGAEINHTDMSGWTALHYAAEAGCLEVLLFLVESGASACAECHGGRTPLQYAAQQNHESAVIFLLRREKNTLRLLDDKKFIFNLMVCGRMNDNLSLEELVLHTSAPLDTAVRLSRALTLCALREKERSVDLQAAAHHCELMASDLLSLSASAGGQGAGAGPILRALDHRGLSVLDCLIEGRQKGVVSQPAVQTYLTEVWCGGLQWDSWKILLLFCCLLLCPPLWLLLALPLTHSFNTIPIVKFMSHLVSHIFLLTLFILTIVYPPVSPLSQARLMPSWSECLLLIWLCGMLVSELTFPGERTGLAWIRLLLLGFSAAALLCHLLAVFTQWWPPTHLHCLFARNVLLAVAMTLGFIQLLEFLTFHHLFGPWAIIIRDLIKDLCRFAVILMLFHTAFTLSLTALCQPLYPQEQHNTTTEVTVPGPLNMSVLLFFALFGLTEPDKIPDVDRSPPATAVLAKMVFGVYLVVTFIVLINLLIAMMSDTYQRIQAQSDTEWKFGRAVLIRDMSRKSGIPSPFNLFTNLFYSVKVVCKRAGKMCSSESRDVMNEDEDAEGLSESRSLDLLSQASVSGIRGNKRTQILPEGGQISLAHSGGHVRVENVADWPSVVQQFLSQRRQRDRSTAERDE
Chain of 26S proteasome non-ATPase regulatory subunit 14 (O00487 whole entry, the tested form may be a part): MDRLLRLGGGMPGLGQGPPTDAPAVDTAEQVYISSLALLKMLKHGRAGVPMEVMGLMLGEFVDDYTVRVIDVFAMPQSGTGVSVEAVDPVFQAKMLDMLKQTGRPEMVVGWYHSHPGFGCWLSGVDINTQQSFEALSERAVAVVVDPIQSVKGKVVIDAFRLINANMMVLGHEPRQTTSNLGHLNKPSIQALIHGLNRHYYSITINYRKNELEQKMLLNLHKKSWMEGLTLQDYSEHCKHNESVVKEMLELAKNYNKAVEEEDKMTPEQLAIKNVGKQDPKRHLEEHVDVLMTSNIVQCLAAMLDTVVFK
Chain of Nonstructural protein 1 (Q194T2 whole entry): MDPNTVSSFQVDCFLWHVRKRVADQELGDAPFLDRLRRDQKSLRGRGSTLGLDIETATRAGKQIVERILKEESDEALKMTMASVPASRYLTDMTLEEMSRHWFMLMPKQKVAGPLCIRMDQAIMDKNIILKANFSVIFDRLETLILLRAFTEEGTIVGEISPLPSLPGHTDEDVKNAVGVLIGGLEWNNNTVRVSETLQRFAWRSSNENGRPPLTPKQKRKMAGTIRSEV
Chain of 72 kDa type IV collagenase (P08253 whole entry): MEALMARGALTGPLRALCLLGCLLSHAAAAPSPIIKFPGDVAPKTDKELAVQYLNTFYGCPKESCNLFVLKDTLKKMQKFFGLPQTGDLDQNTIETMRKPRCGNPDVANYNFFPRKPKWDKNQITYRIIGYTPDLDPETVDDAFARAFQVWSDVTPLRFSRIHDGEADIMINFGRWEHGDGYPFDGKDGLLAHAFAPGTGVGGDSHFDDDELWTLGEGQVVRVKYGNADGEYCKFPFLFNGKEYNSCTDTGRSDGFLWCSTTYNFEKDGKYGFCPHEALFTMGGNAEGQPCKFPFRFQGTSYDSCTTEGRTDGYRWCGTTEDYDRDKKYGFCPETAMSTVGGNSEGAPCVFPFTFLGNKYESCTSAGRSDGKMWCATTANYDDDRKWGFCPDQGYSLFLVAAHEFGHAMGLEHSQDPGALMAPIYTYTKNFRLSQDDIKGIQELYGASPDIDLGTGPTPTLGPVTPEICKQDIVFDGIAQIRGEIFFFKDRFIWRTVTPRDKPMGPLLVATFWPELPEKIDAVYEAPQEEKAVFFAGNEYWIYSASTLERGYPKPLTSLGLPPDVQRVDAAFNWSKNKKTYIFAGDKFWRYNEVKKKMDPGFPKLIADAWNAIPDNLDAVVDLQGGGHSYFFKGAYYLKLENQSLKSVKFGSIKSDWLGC

With OCCN1CCN(Cc2cc(Cl)c3cccnc3c2O)CC1 the EC50 [1] was 121 µM (active), the IC50 [2] was 4.09 µM (active) and the EC50 [3] was > 38 µM (not active). For the same compound, the IC50 (Nonstructural protein 1) was 3.93 µM (active).

With COc1ccc(N(CC(=O)N2CCCCC2)S(=O)(=O)c2ccccc2)c(OC)c1 the EC50 (Mucolipin-3) was 1.84 µM (active) and the EC50 (Ion channel NompC) was > 9.99 µM (not active).

With COc1ccccc1N(C)S(=O)(=O)c1ccc(Cl)c(C(=O)OCc2c(C)noc2C)c1 the EC50 (Mucolipin-3) was 3.01 µM (active) and the EC50 (Ion channel NompC) was > 29.9 µM (not active).

In the case of COCC/N=c1\scc(-c2cc(OC)c(OC)c(OC)c2)n1/N=C/c1c(C)[nH]c2ccccc12, the EC50 (cells [4]) is reported as > 350 µM (not active), the IC50 [5] is reported as > 69.5 µM (inactive) and the IC50 [6] is reported as > 69.5 µM (inactive). The EC50 (cells [7]) was > 350 µM (not active), the IC50 [8] was > 100 µM (inactive) and the IC50 [9] was 76.9 µM (active). For the same compound, the IC50 [10] was > 69.5 µM (inactive) and the IC50 (Prothrombin) was 57.9 µM (active).

In the case of CCCCCCCCOC(=O)c1ccccc1C(=O)OCCCCCCCC, the IC50 [11] is reported as > 20 µM (inactive), the IC50 [12] is reported as > 20 µM (inactive) and the IC50 [13] is reported as > 20 µM (inactive). The IC50 [14] was > 20 µM (inactive), the IC50 [15] was > 20 µM (inactive) and the IC50 [16] was > 20 µM (inactive). For the same compound, the IC50 [17] was > 20 µM (inactive) and the IC50 [18] was > 20 µM (inactive).
